Consider seven molecules from patent US4853209A, “Bone marrow suppressing agents” (The Dow Chemical Company, priority 1987, dated 1989).

Each structure is given as a SMILES string. Where two headings read alike, the source gives them in different places.

The nature of data set [1]: Two hour rat biolocalization of radionuclide compositions (Tables I, II, III). The data set is classed as in vivo. To be noted: 2 h, average of five rats; for Bone/Blood Ratio / Bone/Muscle Ratio: from percent dose per gram; for % Dose in Blood / % Dose in Liver / % Dose in Skeleton / % Dose in Urine / % Dose in Muscle: tail vein. The protocol: A vial is used to prepare the sample for injection. The vial contains 210 mg EDTMP and 140 mg of NaOH such that addition of 6 ml of a 3×10^-4 M Ho-166 solution in 0.1M HCl gave a final pH in the range of 7-8, forming the Ho-166 EDTMP composition. After checking the pH, samples were drawn for injection into Sprague-Dawley rats. Rats were injected with 100 microliters of the solution via a tail vein. Two hours after the injection the rats were killed by cervical dislocation and dissected. The amount of radiation in each tissue was obtained by counting in a NaI well counter and comparing to standards.
The biolocalization of compositions prepared as described in Examples 7, 8, 9 and 10 was determined in rats.
The numbers given in Table I represent the average of the results of five rats per Example.
The biolocalization of the composition prepared as described in Example 12 was determined in rats.
The numbers given in Table II represent the average of the results of testing in three rats.
The biolocalization of compositions prepared as described in Examples 14 and 15 was determined in rats.
The numbers given in Table III represent the average of the results of five rats per Example.

For data set [2] the following is noted: rat. The protocol: Quantitative biodistributions in rats are obtained by injecting 50-100 microliters (μl) of the radionuclide composition into the tail vein of unanesthetized laboratory rats. After a given period of time, the rats are sacrificed by cervical dislocation and various organs and tissues removed. The tissue samples are then rinsed, blotted dry and weighed. The radioactivity in the tissue samples are measured using a NaI scintillation counter in order to determine the biolocalization of the radionuclide.
The numbers given for each Example, with respect to Tables I, II and III represent the percentage of the administered dose which localized in the indicated tissue. The ratio of radioactivity observed in bone relative to other organs was calculated based on the percent dose per gram in the bone and in the particular organ.
A series of rats was injected with the composition of Example 7 and sacrificed in groups of five at various intervals.

The conditions of data set [3]: rabbit, three hours, averaged for 5 rabbits. The protocol:
The composition of Example 7 was also evaluated in rabbits. The rabbits were injected with 100-250 microliters of the composition via a cannula placed in the marginal ear vein.
Three hours after injection, a blood sample was taken by cardiac puncture and the animal was then sacrificed by injection of a commercial euthanasia solution.

Data set [4] concerns bone marrow. To be noted: normal beagles, various dose levels, weekly blood samples. The protocol:
A series of normal beagles was treated with various dose levels of the composition of Example 7. Blood samples were obtained weekly with white blood cell and platelet counts taken to monitor for signs of bone marrow suppression.

The subject of data set [5] is bone marrow. The settings on record: mouse about 20 g, 198 μCi, six days. The protocol:
A mouse weighing about 20 g is injected with 198 μCi of a Ho-166 EDTMP composition. After six days, the animal is sacrificed and both femurs and the sternum removed. The same bones are also taken from a nontreated animal (control). The tissues are fixed using standard histochemical procedures and decalcified using formic acid. The tissues are embedded in paraffin, three micron sections cut, placed on glass slides, and stained with hematoxilyn and eosin.

With `O=P(O)(O)CN(CCN(CP(=O)(O)O)CP(=O)(O)O)CP(=O)(O)O.[153Sm]` [Example 7], in data set [1], the “Bone/Blood Ratio” value was 1800, the “Bone/Muscle Ratio” value worked out at 1500, the “% Dose in Blood” value was determined as 0.032 % Dose and the “% Dose in Liver” value was 0.25 % Dose. Moreover, in data set [1], the “% Dose in Skeleton” value stood at 58 % Dose and the “% Dose in Urine” value worked out at 49 % Dose. For the same molecule, in data set [2], the blood clearance result is listed as “rapid blood clearance” and the uptake in bone entry was “rapid uptake in bone”. Moreover, in data set [2] (1 Hr), the Bone/Blood stood at 120; the Bone/Muscle came out at 300; the “Percent of the Administered Dose, Blood” value was 0.5% of the Administered Dose; the “Percent of the Administered Dose, Kidneys” value (“Percent … Kidneys” below) is given as 0.47% of the Administered Dose. Moreover, in data set [2] (1 Hr), the “Percent of the Administered Dose, Liver” value is given as 0.32% of the Administered Dose; the “Percent of the Administered Dose, Skeleton” value (“Percent … Skeleton” below) was 58% of the Administered Dose; the “Percent of the Administered Dose, Urine” value is listed as 47% of the Administered Dose. In addition, in data set [2] (2 Hrs), the Bone/Blood worked out at 1800; the Bone/Muscle is on record as 1500; the “Percent of the Administered Dose, Blood” value was 0.03% of the Administered Dose; the “Percent … Kidneys” value is 0.25% of the Administered Dose. Also, in data set [2] (2 Hrs), the “Percent of the Administered Dose, Liver” value is recorded as 0.25% of the Administered Dose; the “Percent … Skeleton” value is recorded as 58% of the Administered Dose; the “Percent of the Administered Dose, Urine” value is given as 49% of the Administered Dose. In addition, in data set [2] (5 Hrs), the Bone/Blood turned out to be 4200; the Bone/Muscle is 3600; the “Percent of the Administered Dose, Blood” value is listed as 0.008% of the Administered Dose; the “Percent … Kidneys” value was 0.36% of the Administered Dose. Also, in data set [2] (5 Hrs), the “Percent of the Administered Dose, Liver” value is 0.37% of the Administered Dose; the “Percent … Skeleton” value is 59% of the Administered Dose; the “Percent of the Administered Dose, Urine” value is given as 46% of the Administered Dose. Besides, in data set [2] (15 Min), the Bone/Blood is recorded as 7; the Bone/Muscle came to 30; the “Percent of the Administered Dose, Blood” value is reported as 5.9% of the Administered Dose; the “Percent … Kidneys” value is reported as 1.745% of the Administered Dose. Moreover, in data set [2] (15 Min), the “Percent of the Administered Dose, Liver” value is on record as 0.96% of the Administered Dose; the “Percent … Skeleton” value is given as 48% of the Administered Dose; the “Percent of the Administered Dose, Urine” value is reported as 28% of the Administered Dose. Moreover, in data set [2] (24 Hrs), the Bone/Blood stood at 6700; the Bone/Muscle was found to be 2400; the “Percent of the Administered Dose, Blood” value is recorded as 0.007% of the Administered Dose; the “Percent … Kidneys” value is listed as 0.25% of the Administered Dose. Further, in data set [2] (24 Hrs), the “Percent of the Administered Dose, Liver” value is reported as 0.35% of the Administered Dose; the “Percent … Skeleton” value is 52% of the Administered Dose; the “Percent of the Administered Dose, Urine” value is on record as 55% of the Administered Dose. In data set [2] (30 Min), the Bone/Blood was determined as 20; the Bone/Muscle came to 70; the “Percent of the Administered Dose, Blood” value is recorded as 2.3% of the Administered Dose; the “Percent … Kidneys” value was 0.805% of the Administered Dose. Further, in data set [2] (30 Min), the “Percent of the Administered Dose, Liver” value is 0.53% of the Administered Dose; the “Percent … Skeleton” value is 53% of the Administered Dose; the “Percent of the Administered Dose, Urine” value is 42% of the Administered Dose. Moreover, in data set [2] (48 Hrs), the Bone/Blood stood at 8200; the Bone/Muscle is recorded as 2800; the “Percent of the Administered Dose, Blood” value is listed as 0.006% of the Administered Dose; the “Percent … Kidneys” value was 0.29% of the Administered Dose. In data set [2] (48 Hrs), the “Percent of the Administered Dose, Liver” value is listed as 0.46% of the Administered Dose; the “Percent … Skeleton” value is 60% of the Administered Dose; the “Percent of the Administered Dose, Urine” value was 50% of the Administered Dose. Besides, in data set [2] (72 Hrs), the Bone/Blood turned out to be 7800; the Bone/Muscle came to 3400; the “Percent of the Administered Dose, Blood” value was 0.006% of the Administered Dose; the “Percent … Kidneys” value is recorded as 0.22% of the Administered Dose. Also, in data set [2] (72 Hrs), the “Percent of the Administered Dose, Liver” value is 0.49% of the Administered Dose; the “Percent … Skeleton” value is on record as 57% of the Administered Dose; the “Percent of the Administered Dose, Urine” value is recorded as 53% of the Administered Dose. The “clearance of the radioactivity from the skeletal system” value in data set [2] (throughout the course of the experiment) is reported as “no significant clearance of the radioactivity from the skeletal system”. In data set [3] (marginal ear vein), the “% Dose in Blood” value is 0.12 % Dose, the “% Dose in Liver” value came out at 0.95 % Dose and the “% Dose in Skeleton” value stood at 66 % Dose. Besides, in data set [3] (marginal ear vein, 180 min), the “% Dose in Urine” value stood at 34 % Dose. Further, in data set [3], the “Bone/Blood Ratio” value is given as 900 and the “Bone/Muscle Ratio” value turned out to be 1200. Also, in the data set on bone marrow [4], the platelet count entry is listed as “dose dependent reduction” and the “white blood cell count” value is “dose dependent reduction”.

For `O=P(O)(O)CN(CCN(CP(=O)(O)O)CP(=O)(O)O)CCN(CP(=O)(O)O)CP(=O)(O)O.[153Sm]` [Example 8], in data set [1], the “Bone/Blood Ratio” value was 224, the “Bone/Muscle Ratio” value turned out to be 220, the “% Dose in Blood” value stood at 0.16 % Dose and the “% Dose in Liver” value amounted to 0.27 % Dose. Further, in data set [1], the “% Dose in Skeleton” value was 30 % Dose and the “% Dose in Urine” value is on record as 74 % Dose.

In the case of `O=P(O)(O)CN(CCO)CCN(CP(=O)(O)O)CP(=O)(O)O.[153Sm]` [Example 9], in data set [1], the “Bone/Blood Ratio” value stood at 1300, the “Bone/Muscle Ratio” value is given as 1300, the “% Dose in Blood” value turned out to be 0.035 % Dose and the “% Dose in Liver” value is recorded as 0.45 % Dose. Moreover, in data set [1], the “% Dose in Skeleton” value amounted to 57 % Dose and the “% Dose in Urine” value worked out at 50 % Dose.

For the molecule `O=P(O)(O)CN(CCN(CCN(CP(=O)(O)O)CP(=O)(O)O)CCN(CP(=O)(O)O)CP(=O)(O)O)CP(=O)(O)O.[153Sm]` [Example 10], in data set [1], the “Bone/Blood Ratio” value turned out to be 80, the “Bone/Muscle Ratio” value was determined as 410, the “% Dose in Blood” value is 0.25 % Dose and the “% Dose in Liver” value is recorded as 0.18 % Dose. For the same molecule, in data set [1], the “% Dose in Skeleton” value is listed as 28 % Dose and the “% Dose in Urine” value is on record as 65 % Dose.

Turning to `O=P(O)(O)CN(CCN(CP(=O)(O)O)CP(=O)(O)O)CP(=O)(O)O.[166Ho]` [Example 12], the “suppression of the marrow” value in the data set on bone marrow [5] was “suppression of the marrow”. Also, in the data set on bone marrow [5] (vs nontreated control), the “density of hemapoetic stem cells in marrow” value was “significantly lower density of hemapoetic stem cells” and the “number of red blood cells in marrow” value is given as “significantly higher number of red blood cells”.

In the case of `O=P(O)(O)CN(CCN(CP(=O)(O)O)CP(=O)(O)O)CP(=O)(O)O.[159Gd]` [Example 14], in data set [1], the “Bone/Blood Ratio” value was determined as 305, the “Bone/Muscle Ratio” value came to 577, the “% Dose in Blood” value turned out to be 0.15 % Dose and the “% Dose in Liver” value worked out at 0.25 % Dose. Besides, in data set [1], the “% Dose in Muscle” value was found to be 0.56 % Dose and the “% Dose in Skeleton” value turned out to be 57 % Dose.

Regarding `O=P(O)(O)CN(CCO)CCN(CP(=O)(O)O)CP(=O)(O)O.[159Gd]` [Example 15], in data set [1], the “Bone/Blood Ratio” value stood at 335, the “Bone/Muscle Ratio” value worked out at 548, the “% Dose in Blood” value is given as 0.14 % Dose and the “% Dose in Liver” value is given as 0.57 % Dose. In data set [1], the “% Dose in Muscle” value was determined as 0.76 % Dose and the “% Dose in Skeleton” value turned out to be 60 % Dose.
